Source: patent US6562809B1, “3-bicycloindole compounds” (NPS Allelix Corp., priority 1998, dated 2003)

Experiments:
5-HT1B receptor = molecular target: T1, 5-HT1B receptor (Homo sapiens, UniProt P28222); experiment: Binding affinity, 3H-serotonin displacement from membranes of cells expressing 5-HT1B; settings: 3H-serotonin 2.5 nM; 60 minute incubation at 22° C.; 100 nM test compound given only for 5-HT1D; read-out: percent inhibition at the 5-HT1B receptor
T1 construct: expressed in transfected cells
T1 sequence (P28222 whole entry): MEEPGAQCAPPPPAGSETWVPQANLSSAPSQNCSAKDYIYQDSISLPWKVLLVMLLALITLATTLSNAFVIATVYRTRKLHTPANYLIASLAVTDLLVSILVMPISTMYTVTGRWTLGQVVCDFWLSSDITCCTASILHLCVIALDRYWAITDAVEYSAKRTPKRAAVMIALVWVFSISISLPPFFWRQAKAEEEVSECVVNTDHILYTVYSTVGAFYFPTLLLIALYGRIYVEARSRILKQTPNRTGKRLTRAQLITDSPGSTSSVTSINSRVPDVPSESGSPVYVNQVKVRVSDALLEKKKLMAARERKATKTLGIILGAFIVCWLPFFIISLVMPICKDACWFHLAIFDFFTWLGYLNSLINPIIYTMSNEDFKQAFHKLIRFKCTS
Protocol: (§1) Selected compounds of the previous examples, as well as reference compounds were evaluated for binding affinity using cell types receptive specifically to 5-HT1D and 5-HT1B ligands. The assay protocol generally entailed the incubation of membranes prepared from cells expressing the 5-HT1D or 5-HT1B subtype of 5-HT receptors with ^3H-serotonin (1 nM for 5-HT1D and 2.5 nM for 5-HT1B). Specific concentrations of the test compound were incubated with the radioligand and the membrane homogenates prepared from the recombinant cells. After a 60 minute incubation at 22° C., the incubation was terminated by vacuum filtration. The filters were washed with buffer and counted for radioactivity using liquid scintillation spectroscopy. The affinity of the test compound for the 5-HT1D receptor is expressed as the amount (in percent) of binding of the radioligand that is inhibited in the presence of 100 nM of test compound. A greater percent inhibition indicates greater affinity for the 5-HT1D receptor.

5-HT1D receptor [1] = molecular target: T2, 5-HT1D receptor (Homo sapiens, UniProt P28221); experiment: Binding affinity, 3H-serotonin displacement from membranes of cells expressing 5-HT1D; settings: 100 nM of test compound; 3H-serotonin 1 nM; 60 minute incubation at 22° C.; read-out: percent inhibition of binding of the radioligand at the 5-HT1D receptor
T2 construct: expressed in transfected cells
T2 sequence (P28221 whole entry): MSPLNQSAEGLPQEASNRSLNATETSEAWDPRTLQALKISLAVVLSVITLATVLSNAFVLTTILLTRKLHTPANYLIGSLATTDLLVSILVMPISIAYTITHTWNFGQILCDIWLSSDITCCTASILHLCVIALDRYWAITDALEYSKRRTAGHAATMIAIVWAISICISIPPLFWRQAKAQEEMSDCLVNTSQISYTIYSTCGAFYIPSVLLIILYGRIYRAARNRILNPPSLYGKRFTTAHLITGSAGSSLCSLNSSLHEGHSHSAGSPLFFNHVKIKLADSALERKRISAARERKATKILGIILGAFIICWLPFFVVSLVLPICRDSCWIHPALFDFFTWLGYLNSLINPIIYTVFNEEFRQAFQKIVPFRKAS
Protocol: as §1

5-HT1D receptor [2] = molecular target: T2, 5-HT1D receptor; experiment: Functional assay, inhibition of forskolin-stimulated adenyl cyclase (cAMP) in CHO Pro 5 cells; type: cell-based; settings: CHO cells stably expressing the 5-HT1D receptor; concentrations of 100 nM and 10 μM
Protocol: The 5HT1D and 5HT1B receptor subtypes respond to serotonin and other agonists by reducing adenyl cyclase mediated production of cyclic AMP. Particular test compounds were assayed for their ability to inhibit adenyl cyclase activity using the procedure described below. Forskolin was used to elevate the basal adenyl cyclase activity.
Compounds acting as antagonists at the 5HT1D and 5HT1B receptor subtypes will antagonize the agonist effect of serotonin and thus, will block the serotonin-induced inhibition of forskolin-stimulated adenyl cyclase activity. […]
The culture media of each well was removed, and the wells were washed once with serum free media. […] Basal adenyl cyclase activity was determined from wells with only SFM+IBMX media added.
The cells were then incubated at 37° C. for 30 minutes in a CO2 incubator. […] The pellets were discarded and the supernatants were stored at 4° C. until assayed for cAMP concentration. cAMP content for each extract was determined in duplicate by EIA (enzyme-immunoassay) using the Amersham Biotrak cAMP EIA kit (Amersham RPN 225).
Total inhibition (Io) of forskolin-stimulated adenyl cyclase activity by serotonin was determined as the difference in concentration of cAMP in the forskolin-treated cells (Cf) and serotonin-forskolin treated cells (Cd). […]

Structure (SMILES)	inhibition at 0.1 µM (5-HT1B receptor)	inhibition at 0.1 µM (5-HT1D receptor [1])	forskolin stimulated production of cAMP (agonist activity) (5-HT1D receptor [2])
CC(C)c1ccc2[nH]cc(C3CCN4CCCC4C3)c2c1 (single isomer, unassigned) [Example 9c, 5-Isopropyl-3-[(7R or 7S)(8a-R,S)-octahydro-7-indolizinyl]-1H-indole]	< 50%	> 75%	–
COc1ccc2[nH]cc(C3=CCN4CCCC4C3)c2c1 [Example 3b, 5-Methoxy-3-[(8a-R,S)-1,2,3,5,8,8a-hexahydro-7-indolizinyl]-1H-indole]	< 50%	> 75%	–
Cc1ccc2[nH]cc(C3=CCN4CCCC4C3)c2c1 [Example 3c, 5-Methyl-3-[(8a-R,S)-1,2,3,5,8,8a-hexahydro-7-indolizinyl]-1H-indole]	< 50%	> 75%	–
CC(C)c1ccc2[nH]cc(C3=CCN4CCCC4C3)c2c1 [Example 3d, 5-Isopropyl-3-[(8a-R,S)-1,2,3,5,8,8a-hexahydro-7-indolizinyl]-1H-indole]	< 50%	> 75%	decrease
Brc1ccc2[nH]cc(C3=CCN4CCCC4C3)c2c1 [Example 3e, 5-Bromo-3-[(8a-R,S)-1,2,3,5,8,8a-hexahydro-7-indolizinyl]-1H-indole]	–	> 75%	–
C1=C(c2c[nH]c3ccc(OC4CCCCC4)cc23)CC2CCCN2C1 [Example 3f, 5-Cyclohexyloxy-3-[(8a-R,S)-1,2,3,5,8,8a-hexahydro-7-indolizinyl]-1H-indole]	–	> 75%	–
C1=C(c2c[nH]c3ccc(-c4cccs4)cc23)CC2CCCN2C1 [Example 3g, 5-(2-Thienyl)-3-[(8a-R,S)-1,2,3,5,8,8a-hexahydro-7-indolizinyl]-1H-indole]	–	> 75%	–
OC1(c2ccc3[nH]cc(C4=CCN5CCCC5C4)c3c2)CCCCC1 [Example 3h, 1-{[3-(8a-R,S)-1,2,3,5,8,8a-Hexahydro-7-indolizinyl]-1H-indol-5-yl}cyclohexanol]	< 50%	> 75%	–
CC1=C(c2c[nH]c3ccc(C(C)C)cc23)CC2CCCN2C1 [Example 6, 5-Isopropyl-3-[(8a,R,S)-6-methyl-1,2,3,5,8,8a-hexahydro-7-indolizinyl]-1H-indole]	< 50%	> 75%	–
OC1(c2ccc3[nH]cc(C4=CCN5CCCC5C4)c3c2)CCOCC1 [Example 7, 4-{[3-(8a-R,S)-1,2,3,5,8,8a-Hexahydro-7-indolizinyl]-1H-indol-5-yl}tetrahydro-2H-pyran-4-ol]	< 50%	> 75%	–
C1=C(c2ccc3[nH]cc(C4=CCN5CCCC5C4)c3c2)CCOC1 [Example 8a, 5-(5,6-Dihydro-2H-pyran-4-yl)-3-[(8a-R,S)-1,2,3,5,8,8a-hexahydro-7-indolizinyl]-1H-indole]	–	> 75%	–
C1=C(c2ccc3[nH]cc(C4=CC5CCCN5CC4)c3c2)CCOC1 [Example 8b, 5-(5,6-Dihydro-2H-pyran-4-yl)-3-[(8a-R,S)-1,2,3,5,6,8a-hexahydro-7-indolizinyl]-1H-indole]	–	> 75%	–
C1=C(c2ccc3[nH]cc(C4=CCN5CCCC5C4)c3c2)CCCC1 [Example 8c, 5-(Cyclohexen-1-yl)-3-[(8a-R,S)-1,2,3,5,8,8a-hexahydro-7-indolizinyl]-1H-indole]	< 50%	> 75%	–
C1=C(c2ccc3[nH]cc(C4=CC5CCCN5CC4)c3c2)CCCC1 [Example 8d, 5-(Cyclohexen-1-yl)-3-[(8a-R,S)-1,2,3,5,6,8a-hexahydro-7-indolizinyl]-1H-indole]	–	> 75%	–
C1=C(c2ccc3[nH]cc(C4=CCN5CCCC5C4)c3c2)CCSC1 [Example 8e, 5-(5,6-Dihydro-2H-thiopyran-4-yl)-3-[(8a-R,S)-1,2,3,5,8,8a-hexahydro-7-indolizinyl]-1H-indole]	< 50%	> 75%	–
C1=C(c2ccc3[nH]cc(C4=CC5CCCN5CC4)c3c2)CCSC1 [Example 8f, 5-(5,6-Dihydro-2H-thiopyran-4-yl)-3-[(8a-R,S)-1,2,3,5,6,8a-hexahydro-7-indolizinyl]-1H-indole]	–	> 75%	–
c1cc2[nH]cc(C3CCN4CCCC4C3)c2cc1C1CCOCC1 [Example 9g, 5-(Tetrahydropyran-4-yl)-[(7-R,S)(8a-R,S)-octahydro-7-indolizinyl]-1H-indole]	–	> 75%	–
c1csc(-c2ccc3[nH]cc(C4CCN5CCCC5C4)c3c2)c1 [Example 14c, 3-[(7-R,S)(8a-R,S)-Octahydro-7-indolizinyl]-5-(2-thienyl)-1H-indole]	< 50%	> 75%	decrease
